Test results: US7122666B2, “Heteroaryl-substituted pyrrole derivatives, their preparation and their therapeutic uses” (Sankyo Company, Limited, priority 1999, dated 2006)

Key:
[1] = test system: TNFα production in human whole blood; assay: Inhibition of the production of TNFα in vitro in human whole blood (Test Examples 1 and 1′); type: cell-based; conditions: Table 7′, lipopolysaccharide 10 μg/ml, 6 hours at 37° C., plasma TNFα by ELISA, least squares, read-out: Inhibitory Effect on TNFα Production (in vitro) IC50
Description: Inhibition of the Production of the Cytokines IL-1β and TNFα in Vitro in Human Whole Blood
This test was performed according to the method of Hartman, et al. [D. A. Hartman, S. J. Ochalski and R. P. Carlson; The effects of anti-inflammatory and antiallergic drugs on cytokine release after stimulation of human whole blood by lipopolysaccharide and zymosan A: Inflamm. Res., 44, 269 (1995)].
(§1) Peripheral blood samples were collected in the presence of heparin from healthy adult volunteers. 1000 μl of whole blood were added to an Eppendorf tube to which 2 μl of a dimethyl sulfoxide solution of the test compound had been added in advance, after which 10 μl of lipopolysaccharide (E. coli 026: B6 origin, Difco) were added as a stimulant (final concentration of said lipopolysaccharide: 10 μg/ml). This was mixed well and then incubated for 6 hours at 37° C. in the presence of 5% CO2. At the end of the incubation, the mixture was cooled to 4° C. to stop the reaction, followed immediately by centrifuging for 5 minutes at 14,000 rpm to separate and collect the supernatant plasma. The IL-1β and TNFα produced and released into the plasma were measured using a commercially available enzyme immunoassay (ELISA) kit [Cayman (IL-1β) and Genzyme (TNFα)]. The procedure was also repeated in the absence of test compound. The inhibitory effect [IC50 (μM)] on the production of IL-1β and TNFα was determined from the amounts of the cytokines produced in the presence and absence of the test compound.
Inhibition of the Production of the Cytokines IL-1β and TNFα In Vitro in Human Whole Blood
as §1, with “O26:” for “026:”, “plasma” for “plasma.”, “kits” for “kit”, “determined by the method of least squares” for “determined”

[2] = test system: adjuvant-induced arthritis; assay: Activity in preventing the development of adjuvant-induced arthritis in vivo (Test Examples 4 and 4′); conditions: Table 10′; Lewis rat, oral once a day from day 0 to day 20, inhibition of swelling of injected foot on day 21
Description: The test was performed according to the method described by Winder et al. (Arthritis Rheum., 12, 472–482, 1969). Heat-killed dried Mycobacterium butyricum (Difco Laboratories, Lot 679123) was ground on an agate mortar, and was then suspended in dry-sterilised liquid paraffin (first grade, Wako Pure Chemical Industries, Ltd.) to make a 2 ml suspension. The resulting suspension was then sonicated and used as an adjuvant. Arthritis was induced by the intradermal injection of the adjuvant (100 μg of heat killed dried bacterium/0.05 ml of paraffin/paw) into the heel of the right hind paw of a Lewis rat (male, age 8 weeks, Japan Charles River). […] The volumes of the swollen feet (adjuvant-injected right hind foot volume—non-injected left hind foot volume) were calculated. The percent inhibition of swelling of the injected foot of the treated animals as compared to that of the control animals on day 21 was calculated as follows. […] ID50 values were calculated using this curve. […] […]

**Q.** What does the source list for `CC1C[C@H]2C=C(c3c[nH]c(-c4ccc(F)cc4)c3-c3ccncc3)CCN2C1` (stereo partly drawn) [Example 16′, 2-(4-Fluorophenyl)-4-[(8aS)-2-methyl-1,2,3,5,6,8a-hexahydroindolizin-7-yl]-3-(pyridin-4-yl)1H-pyrrole]?
**A.** IC50 [1]: 2.2 nM; Activity in Preventing the Development of Adjuvant-Induced Arthritis in vivo IC50 [2]: 1.2 mg/kg
